These results are taken from ChEMBL document CHEMBL1129674, “Design, synthesis, and biological activity of a potent inhibitor of the neuropeptidase N-acetylated alpha-linked acidic dipeptidase” (J Med Chem, 1996).

What all share (format): functional
The species named for assay [1] is Rattus norvegicus. As to the kind of experiment: In vitro effect KCL-Evoked Glutamate at 1.0 nM.
The species named for assay [2] is Rattus norvegicus. As to the kind of experiment: In vitro effect of compound on Basal Glutamate Efflux at 10.0 nM.
The species named for assay [3] is Rattus norvegicus. Kind of assay: In vitro effect KCL-Evoked Giutamate at 0.1 nM.
The species named for assay [4] is Rattus norvegicus. Kind of assay: In vitro effect of compound on Basal Glutamate Efflux at 1.0 nM.
For assay [5], the species on record is Rattus norvegicus. Kind of assay: In vitro effect of compound on Basal Glutamate Efflux at 0.1 nM.
The species named for assay [6] is Rattus norvegicus. As to the kind of experiment: In vitro effect KCL-Evoked Giutamate at 10.0 nM.

For the compound `O=C(O)CCC(CP(=O)(O)O)C(=O)O` (stereo unspecified), the Release in assay [1] is given as 368; in assay [3] it was 316; in assay [6], 437. Besides, the Efflux in assay [2] came to 167%; in assay [4], 137%; in assay [5], 151%.
